# Results taken from PubChem BioAssay (NCI).
#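 Tested at 5 concentrations; 48 h exposure; 96-well plates; endpoints linearly interpolated, else capped at highest concentration. GI50 is the concentration that inhibits growth by half. TGI: total growth inhibition.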
# Key:
# Experiment in all cases: inhibition of tumour cell growth, NCI panel, 48 h
# HCT-15 colon = test system: HCT-15 colon
# COLO 205 colon = test system: COLO 205 colon
# SN12C renal = test system: SN12C renal
# TK-10 renal = test system: TK-10 renal
# SK-MEL-28 melanoma = test system: SK-MEL-28 melanoma
# LOX IMVI melanoma = test system: LOX IMVI melanoma
# SK-OV-3 ovarian = test system: SK-OV-3 ovarian
# MALME-3M melanoma = test system: MALME-3M melanoma
# CCRF-CEM leukemia = test system: CCRF-CEM leukemia
# HS 578T breast = test system: HS 578T breast
# HT29 colon = test system: HT29 colon
# UACC-257 melanoma = test system: UACC-257 melanoma
# UACC-62 melanoma = test system: UACC-62 melanoma
# ACHN renal = test system: ACHN renal
# EKVX NSCLC = test system: EKVX NSCLC
# IGROV1 ovarian = test system: IGROV1 ovarian
# NCI/ADR-RES ovarian = test system: NCI/ADR-RES ovarian
# T-47D breast = test system: T-47D breast
# M14 melanoma = test system: M14 melanoma
# SW-620 colon = test system: SW-620 colon
# SK-MEL-2 melanoma = test system: SK-MEL-2 melanoma
# MDA-MB-468 breast = test system: MDA-MB-468 breast
# CAKI-1 renal = test system: CAKI-1 renal
# UO-31 renal = test system: UO-31 renal
# MOLT-4 leukemia = test system: MOLT-4 leukemia
# SF-268 CNS = test system: SF-268 CNS
# HOP-92 NSCLC = test system: HOP-92 NSCLC
# A498 renal = test system: A498 renal
# SR leukemia = test system: SR leukemia
# MDA-MB-231 breast = test system: MDA-MB-231 breast
# OVCAR-4 ovarian = test system: OVCAR-4 ovarian
# MDA-MB-435 = test system: MDA-MB-435
# RPMI-8226 leukemia = test system: RPMI-8226 leukemia
# HL-60(TB) leukemia = test system: HL-60(TB) leukemia
# NCI-H23 lung = test system: NCI-H23 lung
# SK-MEL-5 melanoma = test system: SK-MEL-5 melanoma
# NCI-H522 lung = test system: NCI-H522 lung
# SNB-75 CNS = test system: SNB-75 CNS
# K-562 leukemia = test system: K-562 leukemia
# SF-539 CNS = test system: SF-539 CNS
# KM12 colon = test system: KM12 colon
# SNB-19 CNS = test system: SNB-19 CNS
# OVCAR-5 ovarian = test system: OVCAR-5 ovarian
# DU-145 prostate = test system: DU-145 prostate
# HCC-2998 colon = test system: HCC-2998 colon
# RXF 393 renal = test system: RXF 393 renal
# HCT-116 colon = test system: HCT-116 colon
# BT-549 breast = test system: BT-549 breast
# MCF7 breast = test system: MCF7 breast
# PC-3 prostate = test system: PC-3 prostate
# OVCAR-8 ovarian = test system: OVCAR-8 ovarian
# U251 CNS = test system: U251 CNS
# A549 NSCLC = test system: A549 NSCLC
# NCI-H226 lung = test system: NCI-H226 lung
# NCI-H460 lung = test system: NCI-H460 lung
# OVCAR-3 ovarian = test system: OVCAR-3 ovarian
# 786-0 renal = test system: 786-0 renal
# HOP-62 NSCLC = test system: HOP-62 NSCLC
# SF-295 CNS = test system: SF-295 CNS
structure (smiles),measurement,setting,value
Cc1ccc2c(c1)nc(-c1ccccc1)n2CC(=O)N=Nc1c(O)[nH]c2ccc(Cl)cc12,GI50,HCT-15 colon,1.81 µM
same,TGI,HCT-15 colon,3.57 µM
same,GI50,COLO 205 colon,2.67 µM
same,TGI,COLO 205 colon,7 µM
same,GI50,SN12C renal,1.78 µM
same,TGI,SN12C renal,3.54 µM
same,GI50,TK-10 renal,2.79 µM
same,TGI,TK-10 renal,7.18 µM
same,GI50,SK-MEL-28 melanoma,1.88 µM
same,TGI,SK-MEL-28 melanoma,3.52 µM
same,GI50,LOX IMVI melanoma,1.57 µM
same,TGI,LOX IMVI melanoma,2.98 µM
same,GI50,SK-OV-3 ovarian,2.11 µM
same,TGI,SK-OV-3 ovarian,4.44 µM
same,GI50,MALME-3M melanoma,1.87 µM
same,TGI,MALME-3M melanoma,4.07 µM
same,GI50,CCRF-CEM leukemia,2.41 µM
same,TGI,CCRF-CEM leukemia,52.9 µM
same,GI50,HS 578T breast,2.09 µM
same,TGI,HS 578T breast,6.14 µM
same,GI50,HT29 colon,1.84 µM
same,TGI,HT29 colon,3.76 µM
same,GI50,UACC-257 melanoma,1.86 µM
same,TGI,UACC-257 melanoma,3.77 µM
same,GI50,UACC-62 melanoma,1.75 µM
same,TGI,UACC-62 melanoma,3.45 µM
same,GI50,ACHN renal,1.61 µM
same,TGI,ACHN renal,3.31 µM
same,GI50,EKVX NSCLC,1.61 µM
same,TGI,EKVX NSCLC,3.71 µM
same,GI50,IGROV1 ovarian,1.69 µM
same,TGI,IGROV1 ovarian,3.38 µM
same,GI50,NCI/ADR-RES ovarian,1.84 µM
same,TGI,NCI/ADR-RES ovarian,3.55 µM
same,GI50,T-47D breast,1.94 µM
same,TGI,T-47D breast,5.14 µM
same,GI50,M14 melanoma,2.17 µM
same,TGI,M14 melanoma,4.77 µM
same,GI50,SW-620 colon,2.07 µM
same,TGI,SW-620 colon,4.43 µM
same,GI50,SK-MEL-2 melanoma,10.5 µM
same,TGI,SK-MEL-2 melanoma,25 µM
same,GI50,MDA-MB-468 breast,1.34 µM
same,TGI,MDA-MB-468 breast,2.77 µM
same,GI50,CAKI-1 renal,2.18 µM
same,TGI,CAKI-1 renal,6.64 µM
same,GI50,UO-31 renal,1.38 µM
same,TGI,UO-31 renal,3.36 µM
same,GI50,MOLT-4 leukemia,2.39 µM
same,TGI,MOLT-4 leukemia,11.5 µM
same,GI50,SF-268 CNS,2.36 µM
same,TGI,SF-268 CNS,6.49 µM
same,GI50,HOP-92 NSCLC,1.57 µM
same,TGI,HOP-92 NSCLC,3.76 µM
same,GI50,A498 renal,1.91 µM
same,TGI,A498 renal,3.93 µM
same,GI50,SR leukemia,3.41 µM
same,TGI,SR leukemia,> 100 µM
same,GI50,MDA-MB-231 breast,1.83 µM
same,TGI,MDA-MB-231 breast,3.52 µM
same,GI50,OVCAR-4 ovarian,2.37 µM
same,TGI,OVCAR-4 ovarian,5.93 µM
same,GI50,MDA-MB-435,2.38 µM
same,TGI,MDA-MB-435,5.44 µM
same,GI50,RPMI-8226 leukemia,2.78 µM
same,TGI,RPMI-8226 leukemia,10.4 µM
same,GI50,HL-60(TB) leukemia,4.62 µM
same,TGI,HL-60(TB) leukemia,29.8 µM
same,GI50,NCI-H23 lung,1.7 µM
same,TGI,NCI-H23 lung,3.35 µM
same,GI50,SK-MEL-5 melanoma,2.01 µM
same,TGI,SK-MEL-5 melanoma,4.92 µM
same,GI50,NCI-H522 lung,1.67 µM
same,TGI,NCI-H522 lung,3.38 µM
same,GI50,SNB-75 CNS,1.52 µM
same,TGI,SNB-75 CNS,3.39 µM
same,GI50,K-562 leukemia,3.13 µM
same,TGI,K-562 leukemia,> 100 µM
same,GI50,SF-539 CNS,1.69 µM
same,TGI,SF-539 CNS,3.29 µM
same,GI50,KM12 colon,2.95 µM
same,TGI,KM12 colon,9.49 µM
same,GI50,SNB-19 CNS,2.13 µM
same,TGI,SNB-19 CNS,5.55 µM
same,GI50,OVCAR-5 ovarian,2.91 µM
same,TGI,OVCAR-5 ovarian,9.28 µM
same,GI50,DU-145 prostate,2.53 µM
same,TGI,DU-145 prostate,5.8 µM
same,GI50,HCC-2998 colon,1.79 µM
same,TGI,HCC-2998 colon,3.47 µM
same,GI50,RXF 393 renal,1.5 µM
same,TGI,RXF 393 renal,3.04 µM
same,GI50,HCT-116 colon,2.48 µM
same,TGI,HCT-116 colon,6.21 µM
O=C(CSc1nc2sc3c(c2c(=O)n1-c1ccc(Cl)cc1)CCCC3)N/N=C/C=C/c1ccccc1,GI50,HCT-15 colon,2.96 µM
same,TGI,HCT-15 colon,10.4 µM
same,GI50,COLO 205 colon,1.71 µM
same,TGI,COLO 205 colon,3.4 µM
same,GI50,SN12C renal,18 µM
same,TGI,SN12C renal,> 100 µM
same,GI50,TK-10 renal,2.8 µM
same,TGI,TK-10 renal,9.84 µM
same,GI50,SK-MEL-28 melanoma,4.23 µM
same,TGI,SK-MEL-28 melanoma,16.5 µM
same,GI50,LOX IMVI melanoma,9.02 µM
same,TGI,LOX IMVI melanoma,22.2 µM
same,GI50,BT-549 breast,3.15 µM
same,TGI,BT-549 breast,7.65 µM
same,GI50,SK-OV-3 ovarian,14.2 µM
same,TGI,SK-OV-3 ovarian,38.4 µM
same,GI50,MALME-3M melanoma,1.99 µM
same,TGI,MALME-3M melanoma,4.85 µM
same,GI50,MCF7 breast,3.35 µM
same,TGI,MCF7 breast,18.4 µM
same,GI50,CCRF-CEM leukemia,11.5 µM
same,TGI,CCRF-CEM leukemia,69.9 µM
same,GI50,HS 578T breast,4.64 µM
same,TGI,HS 578T breast,56.5 µM
same,GI50,HT29 colon,2.61 µM
same,TGI,HT29 colon,6.48 µM
same,GI50,UACC-257 melanoma,11.8 µM
same,TGI,UACC-257 melanoma,87.8 µM
same,GI50,UACC-62 melanoma,2.84 µM
same,TGI,UACC-62 melanoma,10.9 µM
same,GI50,ACHN renal,4.22 µM
same,TGI,ACHN renal,29.2 µM
same,GI50,PC-3 prostate,3.04 µM
same,TGI,PC-3 prostate,17.9 µM
same,GI50,EKVX NSCLC,8.81 µM
same,TGI,EKVX NSCLC,> 100 µM
same,GI50,IGROV1 ovarian,14.1 µM
same,TGI,IGROV1 ovarian,35.7 µM
same,GI50,NCI/ADR-RES ovarian,3.58 µM
same,TGI,NCI/ADR-RES ovarian,16 µM
same,GI50,T-47D breast,2.39 µM
same,TGI,T-47D breast,6.92 µM
same,GI50,M14 melanoma,3.44 µM
same,TGI,M14 melanoma,15 µM
same,GI50,SW-620 colon,2.7 µM
same,TGI,SW-620 colon,8.75 µM
same,GI50,MDA-MB-468 breast,1.85 µM
same,TGI,MDA-MB-468 breast,4.11 µM
same,GI50,CAKI-1 renal,43.1 µM
same,TGI,CAKI-1 renal,> 100 µM
same,GI50,OVCAR-8 ovarian,3.17 µM
same,TGI,OVCAR-8 ovarian,11.7 µM
same,GI50,MOLT-4 leukemia,3.57 µM
same,TGI,MOLT-4 leukemia,12.9 µM
same,GI50,U251 CNS,3.3 µM
same,TGI,U251 CNS,11.7 µM
same,GI50,A549 NSCLC,3.58 µM
same,TGI,A549 NSCLC,15.5 µM
same,GI50,SF-268 CNS,24.9 µM
same,TGI,SF-268 CNS,> 100 µM
same,GI50,HOP-92 NSCLC,3.91 µM
same,TGI,HOP-92 NSCLC,25.9 µM
same,GI50,A498 renal,7.71 µM
same,TGI,A498 renal,25.4 µM
same,GI50,NCI-H226 lung,5.19 µM
same,TGI,NCI-H226 lung,23 µM
same,GI50,NCI-H460 lung,3.14 µM
same,TGI,NCI-H460 lung,10.6 µM
same,GI50,OVCAR-3 ovarian,100 µM
same,TGI,OVCAR-3 ovarian,> 100 µM
same,GI50,SR leukemia,26.5 µM
same,TGI,SR leukemia,> 100 µM
same,GI50,786-0 renal,5.51 µM
same,TGI,786-0 renal,20.7 µM
same,GI50,OVCAR-4 ovarian,3.42 µM
same,TGI,OVCAR-4 ovarian,15.9 µM
same,GI50,HOP-62 NSCLC,3.31 µM
same,TGI,HOP-62 NSCLC,13 µM
same,GI50,MDA-MB-435,5.28 µM
same,TGI,MDA-MB-435,22.5 µM
same,GI50,RPMI-8226 leukemia,4.51 µM
same,TGI,RPMI-8226 leukemia,34 µM
same,GI50,HL-60(TB) leukemia,> 100 µM
same,TGI,HL-60(TB) leukemia,> 100 µM
same,GI50,NCI-H23 lung,2.12 µM
same,TGI,NCI-H23 lung,5.78 µM
same,GI50,SK-MEL-5 melanoma,3.12 µM
same,TGI,SK-MEL-5 melanoma,10.8 µM
same,GI50,NCI-H522 lung,3.17 µM
same,TGI,NCI-H522 lung,12.6 µM
same,GI50,K-562 leukemia,4.68 µM
same,TGI,K-562 leukemia,> 100 µM
same,GI50,SF-539 CNS,24.6 µM
same,TGI,SF-539 CNS,> 100 µM
same,GI50,KM12 colon,16.7 µM
same,TGI,KM12 colon,63.6 µM
same,GI50,SNB-19 CNS,18.2 µM
same,TGI,SNB-19 CNS,> 100 µM
same,GI50,OVCAR-5 ovarian,4.87 µM
same,TGI,OVCAR-5 ovarian,27.7 µM
same,GI50,DU-145 prostate,5.3 µM
same,TGI,DU-145 prostate,> 100 µM
same,GI50,HCC-2998 colon,2.75 µM
same,TGI,HCC-2998 colon,7.05 µM
same,GI50,RXF 393 renal,1.93 µM
same,TGI,RXF 393 renal,4.75 µM
same,GI50,HCT-116 colon,3.03 µM
same,TGI,HCT-116 colon,13 µM
same,GI50,SF-295 CNS,4.92 µM
same,TGI,SF-295 CNS,22.4 µM
